# Results from patent publication US5310881A, “Glycosaminoglycan-modified protein” (Seikagaku Corporation, priority 1990, dated 1994).
# Tested on: mouse ischemic foot edema
# Test: Effect on mouse ischemic foot edema
# Format: in vivo, ddy male mouse
# Details: given just before ischemia, HA 26.71 mg
# Experimental: A ddy male mouse aged 8 weeks is kept in a keeping device and the right hind leg is tied around with a suture (Brain No. 2). One end of the suture is fixed while a weight of 500 g is suspended from another end of the suture. Thus, ischemia is conducted for a definite period of time. Before the ischemia and 60 minutes thereafter, the thickness of the foot-pad of the animal was measured with slide calipers. Then, the foot-pad is cut and weighed. To a control group, a physiological saline is intravenously administered immediately before the initiation of the ischemia. To test groups, specimen shown in Table 6 was administered 30 minutes before the initiation of the ischemia and immediately before the same. Each group has 5 animals. The catarase used as a specimen was originated from bovine liver. The HA-catalase used was prepared as follows. 10 mg of the HA-catalase of lot No. 120-1 was dissolved in 5.2 ml of a physiological saline and filtered through a membrane of 0.22 μm (Milex GV; mfd. by Nippon Millipore Kogyo K.K.). 1 ml portions of the filtrate were distributed to ampuls to give a preparation for injection. The preparation contained 600 U of the enzyme per ampul.
# The effects were calculated in accordance with the following equations. [formula] It is believed that a sample showing A of 40 or more is effective. [formula] It is believed that a sample showing A of 60 or more is effective.
substance,measurement,value
hyaluronic acid [HA],Effect A,22
same,Effect B,35
